According to paper PMC11083148, “Structure–Activity Relationship Studies on Highly Functionalized Pyrazole Hydrazones and Amides as Antiproliferative and Antioxidant Agents” (International Journal of Molecular Sciences, 2024):
Where “and” joins values, the source holds several entries; their conditions need not be identical. Equal values may be shown once.

What was measured:
MCF7 = experiment: MTT assay, antiproliferative activity; format: cell-based; settings: Homo sapiens, 10 µM, 48h
Procedure: (§1) Pyrazole acylhydrazones 10–13 and amides 14–22 were tested by MTT assay to evaluate their antiproliferative and cytotoxicity properties against a panel of eight tumor cell lines and normal fibroblasts.
(§2) All reagents were purchased from EuroClone, Milan, Italy). The following cell lines were used for MTT assays: SKOV-3 (ovarian adenocarcinoma, ATCC, Manassas, VA, USA); MCF-7 (breast adenocarcinoma, Biologic Bank and Cell Factory, IRCCS Policlinico San Martino, Genoa, Italy); Hep-G2 (hepatocellular carcinoma, ATCC, Manassas, VA, USA); SK-MEL28 (skin melanoma, Biologic Bank and Cell Factory, IRCCS Policlinico San Martino, Genoa, Italy), GM-6114 (embryonic human fibroblast, ATCC, Manassas, VA, USA); MDA-MB231 (breast adenocarcinoma, Biologic Bank and Cell Factory, IRCCS Policlinico San Martino, Genoa, Italy); HeLa (cervical adenocarcinoma, Biologic Bank and Cell Factory, IRCCS Policlinico San Martino, Genoa, Italy); SK-BR3 (breast andenocarcinoma, Biologic Bank and Cell Factory, IRCCS Policlinico San Martino, Genoa, Italy); A549 (lung carcinoma, Biologic Bank and Cell Factory, IRCCS Policlinico San Martino, Genoa, Italy); HUVEC (Human Umbilical Vein Endothelial Cells, ATCC, Manassas, VA, USA). All cell lines were grown in their medium with 10% FBS, 2 mM Glutamine, and 1% penstrep and incubated at 37 °C in 5% CO2 in a humidified environment. The cell lines were plated in 96-well plates at an adequate number to reach 80–90% confluence at the end of the assay. 16 h after cell plating, a 10 mM DMSO stock solution of the compounds was diluted in growth medium and added at a final working concentration of 10 μM. After 48h of incubation, a 2 mg/mL PBS solution of MTT (3-(4,5-dimethyl-2-thiazolyl)-2,5-diphenyl-2H-tetrazolium bromide) was added (30 μL/well). After 4h, the supernatant was removed, and the Formazan precipitates were dissolved in DMSO (100 μL/well). The 96-well plates were incubated for 20 min, and absorbance was measured at 570 nm using a plate reader. The results are expressed as a percentage ratio over control samples (100%) in which the cells were incubated with the same amount of DMSO but without compounds. Each value is the mean of three independent experiments run in six replicates.
(§3) Each IC50 value is the mean of three independent experiments run in duplicate.

SKMEL28 = experiment: MTT assay, antiproliferative activity; format: cell-based; settings: Homo sapiens, SK-MEL-28, 10 µM, 48h
Procedure: as §1, §2, §3

SKOV3 = experiment: MTT assay, antiproliferative activity; format: cell-based; settings: Homo sapiens, SK-OV-3, 10 µM, 48h
Procedure: as §1, §2, §3

HeLa = experiment: MTT assay, antiproliferative activity; format: cell-based; settings: Homo sapiens, 10 µM, 48h, read-out: Mean Growth Percentage
Procedure: as §1, §2, §3

washed platelets [1] = experiment: Platelet aggregation (thrombin-induced, Born's method); format: cell-based; settings: Homo sapiens, 0.1 U/mL thrombin, mean ± SD, read-out: IC50 Aggregation inhibition
Procedure: (§4) The antioxidant properties of acylhydrazones 10–13 and pyrazolyl amides 14–22 were tested by evaluating their inhibition of platelet aggregation and ROS production (Figure 3, Table S1). In fact, human platelets could represent a fast and low-cost biological model to screen compounds as anticancer, anti-inflammatory, and antiaggregating agents. Moreover, ROS production inhibition, related to human platelet aggregation, could provide a good indication of the anti-inflammatory and antioxidant properties of the newly synthesized compounds [47, 50, 51, 52]. N-acetylcysteine (NAC) and acetyl salicylic acid (ASA) were used as reference drugs for antioxidant and antiaggregant activities, respectively.
(§5) Freshly drawn venous blood from healthy volunteers from “Centro Trasfusionale” (IRCCS Policlinico San Martino, Genoa, Italy) was collected into a 130 mM aqueous trisodium citrate anticoagulant solution (9:1). The donors claimed to not have taken drugs known to interfere with platelet function during the two weeks prior to blood collection and gave their informed consent. Whole blood was centrifuged at 100× g for 20 min to afford platelet-rich plasma that was then spun at 1100× g for 15 min. The obtained pellet was washed once with a pH 5.2 ACD solution (75 mM trisodium citrate, 42 mM citric acid, and 136 mM glucose), centrifuged at 1100× g for 15 min, and then re-suspended in pH 7.4 Hepes buffer (145 mM NaCl, 5 mM KCl, 1 mM MgSO4, 10 mM glucose, and 10 mM HEPES).
Thrombin was purchased from Sigma-Aldrich/Merck Millipore. A DMSO solution of compounds 10–22 was diluted in saline immediately before each experiment and added to the washed platelets (3.0 × 10^8/mL) at 37 °C. After 3 min, 0.1 U/mL thrombin was added, and platelet aggregation was quantified according to Born’s method using a Bio-Data Aggregometer (Bio-Data Corporation, Horsham, PA, USA). The IC50 values were calculated as detailed above.

[2] = DPPH radical-scavenging activity; format: physicochemical; set-up: AA (%), percentage of antioxidant activity: concentration or dose not given beside the values; settings: mean ± SD, n = 2
Procedure: The antioxidant activity of the representative compounds of the two series (namely, acylhydrazones 10b, 11a, 11d, 12d, 13d, and amides 14, 22) was measured in vitro using the 2,2-diphenyl-1-picrylhydrazyl (DPPH) assay. The results were calculated as Trolox equivalent and expressed as a percentage of antioxidant activity (AA) (Table 3). […] Derivatives 10b and 12d were endowed with the highest antioxidant activity, thus highlighting the relevance of both pyrazole N1 and acylhydrazone substituents on compounds’ radical scavenging properties.
Compounds 10b, 11a, 11d, 12d, 13d, 14, and 22 (ca. 3 mg) were dissolved in DMSO (1 mL), and then 100 µL of this solution was mixed with 3.9 mL of DPPH methanol solution (65 µM). Absorbance was measured at 517 nm after reacting for 30 min in the dark. The linear calibration curve was obtained using Trolox standards (ranging between 20 and 200 mg/L, R^2 = 0.9955). The result was calculated as Trolox equivalent in mg/L, and the percentage of antioxidant activity (AA%) was calculated from the ratio of decreasing absorbance of sample solution (A0 − As) to absorbance of blank DPPH solution (A0), as expressed in Equation (1). (1) AA%=A0−As/A0×100
All analyses were carried out in duplicate (n = 2), and values are given as means ± standard deviation (SD).

washed platelets [3] = experiment: ROS assay in platelets (DCFH-DA, thrombin-stimulated); format: cell-based, human; settings: Homo sapiens, Platelet, 0.1 U/mL thrombin, mean ± SD, read-out: IC50 ROS production inhibition
Procedure: as §4, §5
2′,7′-Dichlorofluorescein diacetate (DCFH-DA) and thrombin were purchased from Sigma-Aldrich/Merck Millipore. DMSO solutions of 10–22 were diluted in saline immediately before each experiment. ROS production was quantified by DCFH-DA, a ROS-sensitive probe that yields, upon oxidation, the fluorescent adduct DCF that is trapped inside the cells. Briefly, washed platelets (1.0 × 10^8/mL), pre-incubated with saline solutions of 10–22 for 15 min at 37 °C, were stimulated by 0.1 U/mL thrombin. Incubation was stopped by cooling samples in an ice bath, and then samples were immediately analyzed in a Merck Millipore Bioscience Guava easyCyte flow cytometer (Merk Millipore, Burlington, MA, USA). The reported IC50 values represent the molar concentration of the compounds able to inhibit 50% of the maximal aggregation induced by the agonist and are calculated as the percentage inhibition of the maximal aggregation measured in the presence of the agent compared with the measure in a control sample containing saline, carried out under the same conditions. The IC50 values were extrapolated from nonlinear regression analysis of concentration–response curves (three points) using MS Excel software (Microsoft 365 suite). Each IC50 value is the mean of six independent experiments.

GM-6114 = experiment: MTT assay, cytotoxicity on normal fibroblasts; format: cell-based; settings: human, 48 h, 10 µM
SK-BR3 = experiment: MTT assay, antiproliferative activity; format: cell-based; settings: Homo sapiens, SK-BR-3, 48h
Procedure: as §1, §2

A549 = experiment: MTT assay, antiproliferative activity; format: cell-based; settings: Homo sapiens, 48h, read-out: Mean Growth Percentage
Procedure: as §1, §2

Hep-G2 = experiment: MTT assay, antiproliferative activity; format: cell-based; settings: Homo sapiens, HepG2, 48h
Procedure: as §1, §2

MDA-MB231 = experiment: MTT assay, antiproliferative activity; format: cell-based; settings: Homo sapiens, MDA-MB-231, 48h
Procedure: as §1, §2

[4] = set-up: method as in PMID 32932211; settings: ABTS scavenging assay; cited from earlier work

Row | Compound | mean growth percentage (cell growth remaining vs control) at 10 µM (MCF7) [%] | Mean growth percentage at 10 µM (SKMEL28) [%] | Mean growth percentage at 10 µM (SKOV3) [%] | activity at 10 µM (HeLa) [%] | IC50 (washed platelets [1]) [µM] | AA (%), percentage of antioxidant activity [2] | DPPH (%) [2] [%] | IC50 (washed platelets [3]) [µM] | melting point [°C] | Mean Growth Percentage (GM-6114) [%] | Mean growth percentage at 10 µM (SK-BR3) [%] | activity at 10 µM (A549) [%] | Mean growth percentage at 10 µM (Hep-G2) [%] | Mean growth percentage at 10 µM (MDA-MB231) [%] | IC50 [4] [µM] | Trolox equivalent antioxidant capacity (TEAC) [4]
1 | COC(=O)c1c(NC(=O)c2cc(OC)c(OC)c(OC)c2)n[nH]c1Nc1ccccc1 [compound 14, Methyl 5-(phenylamino)-3-(3,4,5-trimethoxybenzamido)-1H-pyrazole-4-carboxylate] | 66.1 | 41.5 | 38.5 | 9.45 | 365 ± 28 | 3.62 ± 0.08% | 96.38 ± 0.08 | 387 ± 35 | 164 to 166 | 39.31 | 53.8 | 35.1 | 67.2 | 57 | – | –
2 | Nc1c(C(F)(F)F)n[nH]c1-c1cccs1 [IIb] | – | – | – | – | – | – | – | – | – | – | – | – | – | – | 17.6 | 1.10
3 | COc1ccc(/C=N/NC(=O)c2c(N)n[nH]c2Nc2ccccc2)cc1OC [10b, (E)-3-amino-N′-(3,4-dimethoxybenzylidene)-5-(phenylamino)-1H-pyrazole-4-carbohydrazide] | 95.3 | 94.5 | 114 | 105 | 94 ± 7 | 76.45% and 76.45 ± 0.39% | 23.55 ± 0.39 | 104 ± 4 | – | 107.36 | 91.6 | 91.1 | 115 | 100 | – | –
4 | COc1ccc(/C=N/NC(=O)c2c(N)nn(C)c2Nc2ccccc2)cc1OCc1ccccc1 [11d, (E)-3-amino-N′-(3-(benzyloxy)-4-methoxybenzylidene)-1-methyl-5-(phenylamino)-1H-pyrazole-4-carbohydrazide] | 82.9 | 89 | 103 | 95.2 | 890 ± 19 | 15.53 ± 0.24% | 84.47 ± 0.24 | 182 ± 11 | 183 to 186 | 99.22 | 90.2 | 101 | 111 | 98.6 | – | –
5 | CCOC(=O)c1c(NC(=O)c2cc(OC)c(OC)c(OC)c2)nn(C)c1Nc1ccccc1 [compound 22, Ethyl 1-methyl-5-(phenylamino)-3-(3,4,5-trimethoxybenzamido)-1H-pyrazole-4-carboxylate] | 115 | 84.1 | 94.2 | 109 | 249 ± 22 | 2.39 ± 0.24% | 97.61 ± 0.24 | 313 ± 25 | 135 to 138 | 57.94 | 103 | 106 | 102 | 140 | – | –
6 | COc1ccc(/C=N/NC(=O)c2c(Nc3ccccc3)nn(C)c2N)cc1OCc1ccccc1 [12d, (E)-5-amino-N′-(3-(benzyloxy)-4-methoxybenzylidene)-1-methyl-3-(phenylamino)-1H-pyrazole-4-carbohydrazide] | 85.2 | 80.8 | 106 | 85.7 | 433 ± 16 | 69.10 ± 0.39% | 30.90 ± 0.39 | 171 ± 9 | – | 102.79 | 90.6 | 102 | 105 | 94.1 | – | –
7 | COc1ccc(/C=N/NC(=O)c2c(Nc3ccccc3)nn(CC(O)c3ccccc3)c2N)cc1OCc1ccccc1 (stereo not drawn) [13d, (E)-5-amino-N′-(3-(benzyloxy)-4-methoxybenzylidene)-1-(2-hydroxy-2-phenylethyl)-3-(phenylamino)-1H-pyrazole-4-carbohydrazide] | 108 | 93.9 | 112 | 96.7 | 437 ± 25 | 56.29 ± 1.18% | 43.71 ± 1.18 | 405 ± 29 | 170 to 173 | 95.39 | 97.9 | 90.4 | 120 | 93.8 | – | –
